This is an account of results in a melting point compilation (Tetko et al.; mined from patent text by program, amines drawn as free bases though some values may be those of a salt).

Molecules are shown by their SMILES.

For orientation: melting point means the temperature, or range, at which the solid turns liquid. With `Cn1cc(C(=O)NCc2ccc(Br)cc2)c(=O)c2cc(CN3CCOCC3)sc21`, the melting point is 245 to 246 °C.
As for `O=C(OCC1OC(n2cnc3c(NOCc4ccccc4)nc(Cl)nc32)C(OC(=O)c2ccccc2)C1OC(=O)c1ccccc1)c1ccccc1` (configuration not stated), the figure is 115 to 119 °C.
As for `FC(F)(F)c1nc(-c2ccc(NCc3ccccc3)cn2)no1`, the figure is 81 to 84 °C; as for `COc1cc(OCc2ccc3c(c2)C(C)(C)CCC3(C)C)ccc1C(=O)OCc1ccccc1`, 112 to 113 °C; as for `CCOC(=O)c1cc2cc(OCCOC)cc([N+](=O)[O-])c2[nH]1`, 90 to 91 °C.
To `O=C(COc1cc(C(=O)O)c(O)c2ccccc12)Nc1ccccc1` belongs 165 to 166 °C; to `CC(C)c1c(Br)c(Br)c(-c2ccc(F)cc2)n1CC[C@H]1C[C@H](O)CC(=O)O1` (relative stereo), 143 °C; to `CC(Cc1ccccc1)CN(C)C1CCC(c2ccc3[nH]c(=O)oc3c2)CC1` (configuration not stated), 43 to 48 °C.
The compound `Cc1cccc(NC(c2ccc(OC(C)C)cc2)c2ccc3cccnc3c2O)n1` (configuration not stated) showed a melting point of 132 to 134 °C.
As for `FC1=Cc2ccccc2Nc2ccccc21`, the figure is 69 to 72 °C; as for `COP(=O)(CCC(C)(C)c1ccc(O)cc1)OC`, 98 to 101 °C.
To `CCOC(=O)C(C)(C)n1c(=O)[nH]c2c(OC)cccc2c1=O` belongs 144 to 145 °C; to `CCOC(=O)COc1ccc2c(c1)C[C@H](NC(=O)OC(C)(C)C)CC2`, 113 to 115 °C; to `Nc1cccc(C(=O)NS(=O)(=O)c2ccccc2)c1`, 138 °C.
As for `CCCCCCOc1ccc2cc([C@H]3CC[C@H](CCCCCC)CC3)ccc2c1`, the figure is 48 °C; as for `O=C1c2ccccc2C(O)(c2ccccc2)N1C1CCN(CCC(c2ccccc2)c2ccccc2)CC1` (configuration not stated), 150 to 153 °C.
As to `COc1cc(OC)c(F)c(NCc2ccccc2)c1F`, the melting point was in the range of 65 to 66 °C.
To `CC(C)N=c1[nH]c2ccc(Cl)cc2c2nc(-c3ccco3)nn12` belongs 140 to 141 °C.
As for `CC(=O)Oc1c(OC(C)=O)c([C@H]2CC[C@H](c3ccc(Cl)cc3)CC2)c(OC(C)=O)c2ccccc12`, the figure is 177 to 179 °C.
`O=[N+]([O-])CC1C2(CCCC1(c1ccccc1)c1ccccc1)OCCO2` (racemic) yielded a melting point of 148 °C.
As for `Cc1cccc2c1nc(-c1ccc3ccccc3c1)n2Cc1c(F)cccc1F`, the figure is 175 to 176 °C; as for `CC1CCC(=NNc2ccccc2)c2ncc(Br)c(=O)n21` (configuration not stated), 190 to 192 °C.
To `O=C(O)C1=Cc2cc(Cl)c(I)cc2OC1C(F)(F)F` (configuration not stated) belongs 225 to 226 °C.
As for `O=C(O)CCCN(C(=O)c1ccc(Cl)cc1)c1cccc2ccccc12`, the figure is 173 to 174 °C; as for `O=C(O)COc1ccc(Cl)cc1-c1ccc(S(=O)(=O)N2CCOCC2)c(C(F)(F)F)c1`, 208 to 209 °C.
Regarding `O=S(=O)(Br)c1cccs1`, the melting point is 49 to 51 °C.
`C[C@@H](NC(=O)c1ccc(-c2ccc(C#N)cc2)s1)[C@](O)(Cn1cncn1)c1ccc(F)cc1F` registered a melting point of 210 to 211 °C.
To `Cn1c(CNC(=O)c2cc3ccccc3[nH]2)c(-c2ccccc2)c2cc(Cl)ccc2c1=O` belongs more than 305 °C; to `COc1ccc(-c2cc(-c3nc(C)cs3)c(=O)n(C)c2-c2ccnnc2)cc1`, 271 °C.
To `CCOC(=O)C1CC(=O)C(N=Nc2ccc(Br)cc2)=C(O)C1` (configuration not stated) belongs 169 to 171 °C; to `CCCc1c(OCC(O)COc2cccc(NC(=O)C(=O)OCC)c2)ccc(C(C)=O)c1O` (configuration not stated), 98 to 101 °C; to `CCc1nc2c(N)nc3cc(OCCCOc4ccc5c(c4)nc(N)c4nc(CC)sc45)ccc3c2s1`, 242 to 243 °C.
To `CC(=O)Nc1cc2c(c3c1OC(C)(C)C3)C(c1ccccc1)=NC(C)(C)C2` belongs 175 to 180 °C; to `CCCCCCCCCCC(=O)NCCCCCCCCCCCC(=O)O`, 102 to 104 °C; to `CC(CSSc1nc2ccccc2s1)SSc1nc2ccccc2s1` (configuration not stated), 63 to 65 °C.
On to `O=C(OC1C2OCC(O2)C(OCc2ccccc2)C1OCc1ccccc1)c1ccccc1` (configuration not stated), for which the melting point was 111 to 113 °C.
To `Cn1c(CNCC(C)(C)S(C)(=O)=O)cc2cc(NC(=O)c3ccc(OCC4CC4)cc3)ccc21` belongs 168 to 169 °C; to `N#Cc1ccc(C=O)cc1F`, 83 °C; to `CCCNC(=O)C1(CCCCc2ccc(N3Cc4ccccc4C3=O)cc2)c2ccccc2-c2ccccc21`, 147 to 148 °C.
As for `COc1ccc(Nc2cc3c(cc2Nc2ccccc2)C(=O)NC3=O)cc1`, the figure is 266 to 267 °C.
To `CCOC(=O)C(=O)Nc1ccncc1` belongs 110 to 113 °C; to `CC(C)(C)OC(=O)N1CCC(NC(=O)c2ccc(-n3cccn3)cc2)CC1`, 170 to 171 °C.
Consider `O=CN1CCN(CCSc2nc3ccccc3[nH]2)CC1`, for which the melting point was in the range of 146 to 148 °C.
To `CCNC(=O)c1cccc(F)c1Nc1nc(Cl)ncc1Cl` belongs 233 to 234 °C.
As for `CCCC(=O)OCC(=O)C1(OC(C)=O)CCC2C3CC(C)C4=CC(=O)CCC4(C)C3C(O)CC21C` (configuration not stated), the figure is 98 to 120 °C.
With `COc1ccc(-c2nc(Cn3ccnn3)co2)cc1`, the melting point lay in the range of 126 to 127 °C.
Compound `CC(COc1ccc(CC2SC(=O)NC2=O)cc1)N1CC(COc2ccccc2)OC1=O` (configuration not stated) gave a melting point of 54 to 56 °C.
As for `CNC(=O)c1cccc(Nc2ncnc3[nH]cc(C(=O)c4ccccc4C)c23)c1`, the melting point is more than 300 °C.
To `NN(C(=O)c1ccc(Cl)c(S(N)(=O)=O)c1)c1ccc(C(=O)c2ccccc2)cc1[N+](=O)[O-]` belongs 148 °C; to `COc1ccc2c(c1)CCc1c(Cl)cccc1S2`, 73 to 74 °C; to `COc1ccc2c(c1)Sc1ccc(SC)cc1C(=O)C2`, 127 °C.
For `CCOC(=O)c1ccc(NC(=O)OC(C)(C)C)cc1`, the melting point is 149 to 150 °C.
`COc1ccc(N2CCN(Cc3nn(C(C)=O)c4cc(F)ccc34)CC2)cc1` had a melting point of 94 to 95 °C.
To `CCOC(=O)c1sc(N2CCN(Cc3ccc(Cl)cc3)C2=O)nc1C` belongs 117 to 119 °C; to `C=C1CC(C(O)=Nc2cc(Cl)cc(Cl)c2)C1C(=O)O` (configuration not stated), 119 °C; to `O=c1c(-c2ccc(F)cc2)coc2c(O)c(O)ccc12`, 289 °C.
To `CC(C)c1ccc(O)c(C(C)C)c1NC(=O)CN1CCN(CCSc2nc3cccc(C(F)(F)F)c3o2)CC1` belongs 82 to 84 °C; to `O=C(O)c1ccc(N2C(=O)C(=Cc3ccccc3)SC2=S)cc1`, 298 to 301 °C.
As for `N#CCCNC(=O)c1n[nH]cc1NC(=O)c1ccccc1`, the figure is 186 to 187 °C; as for `N#Cc1cc(C(F)(F)F)[nH]c1-c1ccc(Br)o1`, 224 to 226 °C; as for `N#Cc1ccc(NCC(=O)Nc2c(Cl)ccc3nc(N4CC[C@@H](O)C4)ccc23)cc1`, 230 to 233 °C.
`O=C(O)CC1(CNC(=O)c2ccc(CO[N+](=O)[O-])cc2)CCCCC1` yielded a melting point of 127 to 128 °C.
Regarding `CCn1cc(CO)c(OCc2ccc(OCc3nc(-c4ccco4)oc3C)c(OC)c2)n1`, the melting point fell in the range of 117 to 118 °C.
With `CCCCCCCCCCCCCCCCCCS(=O)c1cc2ccccc2cc1OC(C)=O` (configuration not stated), the melting point was in the range of 91 to 93 °C.
To `CCOC(=O)CCc1oc2cccc(O)c2c1C` belongs 61 to 63 °C; to `C=CCNc1cc(Cl)nnc1Cl`, 95 to 98 °C; to `O=C(CCCCc1ccccc1)NC(C(=O)Nc1n[nH]c(=S)s1)c1ccccc1` (configuration not stated), 210 to 211 °C.
To `Cc1ccc(C(=O)C=CN(C)C)cc1C` belongs 108 to 110 °C; to `NC(=O)CCSC(SCCC(=O)O)c1cccc(SCc2ccc3ccc(Cl)cc3n2)c1` (configuration not stated), 141 to 142 °C; to `COC(OC)(c1ccncc1)C(NC(=O)NCCCc1ccccc1)c1ccc(F)cc1` (configuration not stated), 162 to 166 °C.
To `COCc1nc(N)nc(N)c1-c1ccc(Cl)cc1Cl` belongs 183 to 185 °C; to `CC(F)C1C(=O)NC1CC(=O)OCc1ccccc1` (mixture of isomers), 40 to 43 °C.
`CN(C)CCOc1ccc2[nH]c(C(=O)N3CC(CCl)c4c3cc(N)c3ccccc43)cc2c1` (configuration not stated) had a melting point of more than 250 °C.
As for `Cc1c(N)c2c(c3c1C(c1ccc(C(C)C)cc1)CO3)CCCC2` (configuration not stated), the figure is 106 to 107 °C.
Consider `CCOc1nc2c(cnn2CC)nc1C(=O)NN1CCCCC1`, for which the melting point was in the range of 114 to 115 °C.
The compound `O=c1[nH]c2ccccc2c(=O)n1CCN1CCC(c2noc3cc(F)ccc23)CC1` displayed a melting point of 253 °C.
With `CCc1cc(N(C=O)c2ccccc2)cc(CC)c1N(C(N)=S)C(C)(C)C`, the melting point is 160 to 162 °C.
As for `CCOC(=O)NC(=O)Nc1ccc(Cl)cc1C(=O)c1ccccc1F`, the figure is 208 to 209 °C; as for `CC(C)c1cccc(C(C)C)c1NC(=O)CN(CC1(Nc2ccccc2)CCCCC1)C(=O)OC(C)(C)C`, 125 to 127 °C; as for `CCOC(=O)c1ccc(-c2c(F)ccc([N+](=O)[O-])c2F)cc1`, 85 to 86.7 °C.
As for `CCOC(=O)CCc1ccc(OCc2ccc(OCc3nc(-c4ccccc4)oc3C)cc2)cc1OCC`, the figure is 64 to 65 °C; as for `CC(=O)C1=Nc2cc3c(c(C)c2=C1C)N=c1ccccc1=3`, 258 to 260 °C; as for `N#Cn1nc(-c2ccccc2)c(=O)cc1Br`, 152 to 155 °C.
To `COc1cc2c(cc1OC)-c1c(OC)c(OC)cc3ccnc(c13)C2=O` belongs 229 to 230 °C.
Turning to `Cc1oc2ccc(-n3nnc4cccnc43)cc2c1C`, the melting point lay in the range of 152 to 153 °C.
As for `CC(C)(C)OC(=O)C(=[N+]=[N-])C(=O)CO`, the figure is 35 °C; as for `Cc1cc(C)c(-c2nc(Oc3ccccc3)nc(Oc3ccccc3)n2)c(C)c1`, 135 to 143 °C.
